Data published in patent US8399462B2, “JNK modulators” (Roche Palo Alto LLC, priority 2006, dated 2013).
Like-named read-outs stand apart in the source and are kept apart here.

Columns and labels:
[1] = test system: TNFα-induced IL-6 production; assay: Rat in vivo TNFα-induced IL-6 production assay; conditions: 1.5 h, oral gavage, 30 min before TNF-α i.p., blood 90 min after challenge
Procedure: Female Wistar-Han rats procured from Charles River Laboratories were allowed to acclimate for one week prior to use and achieve an approximate body weight of 95-130 g. Rats were administered test compound via oral gavage 30 min prior to an intraperitoneal challenge of 0.5 μg recombinant rat TNF-α (Biosource). Blood was collected via cardiocentesis 90 min after TNF-α challenge. Plasma was prepared using lithium heparin separation tubes (BD microtainer) and frozen at −80° C. until analyzed. IL-6 levels were determined using a rat specific IL-6 ELISA kit (Biosource).

[2] = target: Human JNK1α1 (Homo sapiens, UniProt P45983); assay: JNK assay in vitro (phosphorylation of GST-ATF2 with [γ-33P]ATP), JNK1; type: biochemical
Human JNK1α1, sequence (P45983 1-384 isoform P45983-2): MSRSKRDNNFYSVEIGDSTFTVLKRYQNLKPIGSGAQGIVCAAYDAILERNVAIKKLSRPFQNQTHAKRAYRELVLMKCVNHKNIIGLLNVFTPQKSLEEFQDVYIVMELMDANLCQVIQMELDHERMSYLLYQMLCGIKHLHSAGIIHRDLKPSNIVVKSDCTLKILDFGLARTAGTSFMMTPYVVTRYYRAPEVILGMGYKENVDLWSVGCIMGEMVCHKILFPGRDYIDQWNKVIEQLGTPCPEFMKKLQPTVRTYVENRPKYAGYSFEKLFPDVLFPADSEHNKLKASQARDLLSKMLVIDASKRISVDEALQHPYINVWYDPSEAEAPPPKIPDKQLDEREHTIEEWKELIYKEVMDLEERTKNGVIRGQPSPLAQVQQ
Procedure: (§1) JNK activity was measured by phosphorylation of GST-ATF2 (19-96) with [γ-^33P] ATP. […] Human JNK2α2 assay contains 1 nM enzyme, 1 μM ATF2, 8 μM ATP with 1 μCi [γ-^33P] ATP. Human JNK1α1 assay contains 2 nM enzyme, 1 μM ATF2, 6 μM ATP with 1 μCi [γ-^33P] ATP. Human JNK3 (Upstate Biotech #14-501M) assay contains 2 nM enzyme, 1 μM ATF2, 4 μM ATP with 1 μCi [γ-33P] ATP. The enzyme assay was carried out in the presence or absence of several compound concentrations. JNK and compound were pre-incubated for 10 min., followed by initiation of the enzymatic reaction by adding ATP and the substrate. The reaction mixture was incubated at 30° C. for 30 min. At the end of incubation, the reaction was terminated by transferring 25 μl of the reaction mixture to 150 μl of 10% glutathione Sepharose® slurry (Amersham # 27-4574-01) containing 135 mM EDTA. The reaction product was captured on the affinity resin, and washed on a filtration plate (Millipore, MABVNOB50) with phosphate buffered saline for six times to remove free radionucleotide. The incorporation of ^33P into ATF2 was quantified on a microplate scintillation counter (Packard Topcount). Compound inhibition potency on JNK was measured by IC50 value generated from ten concentration inhibition curves fitted into the 3-parameter model: % inhibition=Maximum/(I+(IC50/[Inhibitor])^slope). Data were analyzed on Microsoft Excel for parameter estimation.

[3] = target: Human JNK2α2 (Homo sapiens, UniProt P45984); assay: JNK assay in vitro (phosphorylation of GST-ATF2 with [γ-33P]ATP), JNK2; type: biochemical
Human JNK2α2, sequence (P45984 whole entry): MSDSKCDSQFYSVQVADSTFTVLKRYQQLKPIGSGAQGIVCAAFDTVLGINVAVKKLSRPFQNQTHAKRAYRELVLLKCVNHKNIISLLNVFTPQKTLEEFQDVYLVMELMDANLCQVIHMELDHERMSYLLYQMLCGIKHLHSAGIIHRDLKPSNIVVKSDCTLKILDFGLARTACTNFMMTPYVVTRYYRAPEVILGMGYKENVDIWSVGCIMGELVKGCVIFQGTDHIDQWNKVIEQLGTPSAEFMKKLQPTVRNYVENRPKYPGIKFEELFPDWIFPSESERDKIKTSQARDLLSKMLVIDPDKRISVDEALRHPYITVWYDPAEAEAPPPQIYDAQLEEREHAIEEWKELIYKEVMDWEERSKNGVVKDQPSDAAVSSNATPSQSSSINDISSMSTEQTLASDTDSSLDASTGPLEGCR
Procedure: as §1

[4] = test system: c-jun; assay: c-jun of Table 2 (method not described); type: cell-based
[5] = test system: inflammatory cell infiltration into BAL; assay: Ovalbumin-sensitized asthma model (inflammatory cell infiltration into BAL); type: in vivo, rat
Procedure: (A) Male Brown-Norway rats are sensitized i.p. with 100 μg of OA (ovalbumin) in 0.2 ml alum once every week for three weeks (day 0, 7, and 14). The week following the last sensitization, the rats are ready for testing. One to 2 days prior to challenge, animals are weighed. On day 21, the rats are dosed q.d. with either vehicle or compound formulation subcutaneously 30 minutes before OA aerosol challenge (1% OA for 45 minutes) and terminated 4 or 24 hours after challenge. At time of sacrifice, rats are anesthetized (urethane, approx. 2 g/kg, i.p.). Plasma is collected from rats for PK at termination. Blood is drawn from the abdominal aorta at termination. A tracheal cannula is inserted and the lungs are lavaged with 3×3 ml PBS. The BAL fluid is analyzed for total leukocyte number and differential leukocyte counts. Total leukocyte number in an aliquot of the cells (20-100 μl) is determined using a Coulter Counter. For differential leukocyte counts, 50-200 μl of the sample is centrifuged in a Cytospin and the slide stained with Diff-Quik. The proportions of monocytes, eosinophils, neutrophils and lymphocytes are counted under light microscopy using standard morphological criteria and expressed as a percentage. The remaining BAL fluid is centrifuged (1500 rpm, 10 min) and the supernatant is stored at −80° C. Lungs are also harvested for protein and/or RNA analyses.

[6] = test system: inflammatory cell infiltration into BAL; assay: as above; type: in vivo, rat; conditions: 30 mg/kg

CS(=O)(=O)CCCOc1cccc2c1ccn2-c1ccnc(N[C@H]2CC[C@H](C(=O)N3CC[C@H](O)C3)CC2)n1 [Compound 224, (3-hydroxy-pyrrolidin-1-yl)-(4-{4-[4-(3-methane-sulfonyl-propoxy)-indol-1-yl]-pyrimidin-2-ylamino}-cyclohexyl)-methanone]
inhibition in vivo at 20 mg/kg [1]: 68.6%

CC(C)(O)[C@H]1CC[C@H](Nc2nccc(-n3ccc4c(OCCCS(C)(=O)=O)cccc43)n2)CC1 [Compound 166, 2-(4-{4-[4-(3-methanesulfonyl-propoxy)-indol-1-yl]-pyrimidin-2-ylamino}-cyclohexyl)-propan-2-ol]
inhibition in vivo at 10 mg/kg [1]: 48.5%
inhibition in vivo at 20 mg/kg [1]: 75.2%

CC(C)(O)c1cccc2c1ccn2-c1ccnc(N[C@H]2CC[C@H](O)CC2)n1 [Compound 18, 4-[4-(4-(2-hydroxyprop-2-yl)-indol-1-yl)-pyrimidin-2-ylamino]-cyclohexanol]
IC50 [2]: 73.5 nM
IC50 [3]: 337 nM
IC50 [4]: 1950 nM

CS(=O)(=O)CCCOc1cccc2c1ccn2-c1ccnc(N[C@H]2CC[C@H](C(=O)N3CCC(N)CC3)CC2)n1.Cl [Compound 233, (4-amino-piperidin-1-yl)-(4-{4-[4-(3-methane-sulfonyl-propoxy)-indol-1-yl]-pyrimidin-2-ylamino}-cyclohexyl)-methanone]
inhibition in vivo at 20 mg/kg [1]: 57.8%
melting point: 247 to 248 °C

O=C(NCC(O)CO)[C@H]1CC[C@H](Nc2nccc(-n3ncc4ccccc43)n2)CC1 (some centres unmarked) [Compound 16]
IC50 [2]: 70.8 nM
IC50 [3]: 592 nM
IC50 [4]: 4130 nM
inhibition in vivo at 30 mg/kg [1]: 47.4%

COc1cccc2c1cnn2-c1ccnc(N[C@H]2CC[C@H](O)CC2)n1 [Compound 86, 4-[4-(4-methoxyindazol-1-yl)-pyrimidin-2-yl-amino]-cyclohexanol]
IC50 ([2]; Km concentrations of ATP and substrate, 6 μM ATP, 1 μM ATF2): 22.8 nM
IC50 ([3]; Km concentrations of ATP and substrate, 8 μM ATP, 1 μM ATF2): 178 nM

CC(C)(O)[C@H]1CC[C@H](Nc2nccc(-n3ncc4c(OCCCS(C)(=O)=O)cccc43)n2)CC1 [Compound 157, 2-(4-{4-[4-(3-methane-sulfonyl-propoxy)-indazol-1-yl]-pyrimidin-2-ylamino}-cyclohexyl)-propan-2-ol]
inhibition in vivo at 10 mg/kg [1]: 52.5%
Eosinophils % inhibition ([5]; 10 mg/kg): 6.5%
Eosinophils count in BAL ([5]; 10 mg/kg): 0.29 ± 0.09 × 10^5 per mL
Neutrophils % inhibition ([5]; 10 mg/kg): 41.3%
Neutrophils count in BAL ([5]; 10 mg/kg): 0.94 ± 0.10 × 10^5 per mL
Total cells % inhibition ([5]; 10 mg/kg): 3.3%
Total cells count in BAL ([5]; 10 mg/kg): 2.67 ± 0.13 × 10^5 per mL
Total cells % inhibition ([5]; 30 mg/kg): 10.9%
Eosinophils % inhibition [6]: 22.6%
Eosinophils count in BAL [6]: 0.24 ± 0.05 × 10^5 per mL
Neutrophils % inhibition [6]: 70.6%
Neutrophils count in BAL [6]: 0.47 ± 0.12 × 10^5 per mL
Total cells count in BAL [6]: 2.46 ± 0.18 × 10^5 per mL

C[C@@H]1C[C@H]2[C@@H]3CCC4=CC(=O)C=C[C@]4(C)[C@@]3(F)[C@@H](O)C[C@]2(C)[C@@]1(O)C(=O)CO [Dexamethasone, dexamethasone, reference compound]
Eosinophils % inhibition ([5]; 10 mg/kg): 41.9%
Eosinophils count in BAL ([5]; 10 mg/kg): 0.18 ± 0.11 × 10^5 per mL
Neutrophils % inhibition ([5]; 10 mg/kg): 97.5%
Neutrophils count in BAL ([5]; 10 mg/kg): 0.04 ± 0.01 × 10^5 per mL
Total cells % inhibition ([5]; 10 mg/kg): 23.2%

CC(C)C(=O)Nc1cccc2c1ccn2-c1ccnc(N[C@H]2CC[C@H](O)CC2)n1 [Compound 88, N-(1-[2-(4-hydroxy-cyclohexylamino)-pyrimidin-4-yl]-1H-indol-4-yl)-isobutyr-amide]
IC50 [2]: 70.9 nM
IC50 [3]: 480 nM
melting point: 211.8 to 212.6 °C

O=C(NC(CO)CO)[C@H]1CC[C@H](Nc2nccc(-n3ncc4ccccc43)n2)CC1 [Compound 26, 4-(4-indazol-1-yl-pyrimidin-2-ylamino)-cyclohexane carboxylic acid 1,3-dihydroxyprop-2-ylamide]
IC50 [2]: 85 nM
IC50 [3]: 695 nM
IC50 [4]: 1890 nM
inhibition in vivo at 30 mg/kg [1]: 59.6%

CS(=O)(=O)CCCOc1cccc2c1ccn2-c1ccnc(N[C@H]2CC[C@H](C(=O)N3CC[C@@H](O)C3)CC2)n1 [Compound 225, (3-hydroxy-pyrrolidin-1-yl)-(4-{4-[4-(3-methane-sulfonyl-propoxy)-indol-1-yl]-pyrimidin-2-ylamino}-cyclohexyl)-methanone]
inhibition in vivo at 20 mg/kg [1]: 50.9%

CS(=O)(=O)CCCOc1cccc2c1cnn2-c1ccnc(N[C@H]2CC[C@H](NC(=O)CN3CCOCC3)CC2)n1 [Compound 159, N-(4-{4-[4-(3-methane-sulfonyl-propoxy)-indazol-1-yl]-pyrimidin-2-ylamino}-cyclohexyl)-2-morpholin-4-yl-acetamide]
inhibition in vivo at 10 mg/kg [1]: 57.6%
melting point: 219.2 to 221.1 °C

CCC(CO)NC(=O)[C@H]1CC[C@H](Nc2nccc(-n3ncc4ccccc43)n2)CC1 (some centres unmarked) [Compound 15]
IC50 [2]: 67.8 nM
IC50 [3]: 458 nM
IC50 [4]: 1290 nM

N#CCOc1cccc2c1cnn2-c1ccnc(N[C@H]2CC[C@H](O)CC2)n1 [Compound 87, (1-[2-(4-hydroxycyclo-hexylamino)-pyrimidin-4-yl]-1H-indazol-4-yl-oxy)acetonitrile]
IC50 [2]: 29.7 nM
IC50 [3]: 191 nM
IC50 [4]: 1710 nM
inhibition in vivo at 10 mg/kg [1]: 64%

CCNC(=O)[C@H]1CC[C@H](Nc2nccc(-n3ccc4c(OCCCS(=O)(=O)NC)cccc43)n2)CC1 [Compound 303, 4-{4-[4-(3-methane-sulfamoyl-propoxy)-indol-1-yl]-pyrimidin-2-ylamino}-cyclohexane-carboxylic acid ethyl-amide]
melting point: 201.7 to 203.2 °C
